Measurements from patent publication EP0096293A1, “N-acetylglucosamine derivatives, process for their preparation and their use to combat malaria” (BEHRINGWERKE Aktiengesellschaft, priority 1982, dated 1983).
Where a name gives a salt, the structure may show the parent alone.

Legend:
[1] = test system: P. falciparum; assay: Intraerythrocytic growth of malaria parasites (toxicity to the parasite); type: cell-based; conditions: applicant's own finding, contrary to Vanderberg et al.
[2] = test system: P. falciparum-Merozoiten; conditions: synchronous in vitro culture, addition of the sugar; findings of Vanderberg et al. (Exp. Parasitol. 1981); cited from earlier work
[3] = test system: P. falciparum; conditions: findings of Vanderberg et al. (Exp. Parasitol. 1981); cited from earlier work
[4] = test system: P. falciparum-Merozoiten; assay: Invasion of human erythrocytes by P. falciparum merozoites in synchronous in vitro culture; type: cell-based; conditions: compared with other methyl glycosides (methyl gluco-, galacto-, fuco-, mannopyranosides)

Row | SMILES | intraerythrozytäre Parasiten-Wachstum (toxisch) [1] | Befall von Humanerythrozyten durch P. falciparum-Merozoiten [2] | intraerythrozytäre Wachstum der Malaria-Parasiten [3] | invasionsinhibierende Wirkung [4]
1 | CC(=O)N[C@H]1C(O)O[C@H](CO)[C@@H](O)[C@@H]1O (stereo partly drawn) [DGlcNAc, N-Acetyl-D-glucosamin] | toxisch | gehemmt | nicht aber durch N-Acetyl-D-Glucosamin gehemmt | 
2 | N[C@H]1C(O)O[C@H](CO)[C@@H](O)[C@@H]1O (stereo partly drawn) [DGlcNH3Cl, D-Glucosaminhydrochlorid] |  | gehemmt | gehemmt | 
3 | C[C@@H]1OC(O)[C@@H](O)[C@H](O)[C@@H]1O (stereo partly drawn) [L-Fucose] | nicht toxisch | gehemmt | gehemmt | 
4 | CO[C@H]1O[C@H](CO)[C@@H](O)[C@H](O)[C@H]1NC(C)=O [α-DGlcNAcOMe, Methyl-2 -acetamido- 2 -desoxy-alpha oder beta-D-glucopyranosid] | nicht toxisch |  |  | stark erhöhte invasionsinhibierende Wirkung
5 | CO[C@@H]1O[C@H](CO)[C@@H](O)[C@H](O)[C@H]1NC(C)=O [β-DGlcNAcOMe, Methyl-2 -acetamido- 2 -desoxy-alpha oder beta-D-glucopyranosid] | nicht toxisch |  |  | stark erhöhte invasionsinhibierende Wirkung
